The values below come from patent US20150315218A1, “SALTS OF PRODRUGS OF PIPERAZINE AND SUBSTITUTED PIPERIDINE ANTIVIRAL AGENTS” (Bristol-Myers Squibb Company, priority 2004, published 2015).

Structures can show the parent of a compound that is named as a salt.

A short description of data set [1]: IV and PO pharmacokinetic studies of prodrug salts (Iab, Ibb, Icb) in the dog, with historical parent data. The format is in vivo, beagle dogs. The settings on record: for concentration at 24 h: read-out: C-24 hr; for Cmax: read-out: Cmax. As for the experimental part: The IV and PO studies of Iab were conducted in a crossover fashion in three male beagle dogs (11±1.1 kg, Marshall Farms USA Inc., North Rose, N.Y.). There was a two-week washout period between the IV and PO studies.
In the IV study, Iab was infused via the cephalic vein at 1.2 mg/kg (free acid, or 0.95 mg/kg of IVa equivalent) over 5 min at a constant rate of 0.1 mL/kg/min. The concentration of the dosing solution was 2.4 mg/mL, and the dosing volume was 0.5 mL/kg. Serial blood samples were collected from the femoral artery before dosing and at 5, 10, 15, 30, 45 min, 1, 2, 4, 6, 8 and 24 hr after dosing.
In the PO study, the dogs were fasted overnight before dosing. Iab was administered by oral gavage at 6.6 mg/kg (free acid, or 5.2 mg/kg of IVa equivalent). The concentration of the dosing solution was 13.2 mg/mL, and the dosing volume was 0.5 mL/kg. Serial blood samples were collected before dosing and at 15, 30, 45 min, 1, 2, 4, 6, 8 and 24 hr after dosing.
The IV and PO studies of Ibb were conducted in male beagle dogs (10±0.78 kg, Marshall Farms USA Inc., North Rose, N.Y.). Three dogs were used in each study. Of the three dogs, two same dogs were used for both IV and PO studies. There was a two-week washout period between the IV and PO studies.
The concentration of the dosing solution was 2.6 mg/mL, and the dosing volume was 0.5 mL/kg. Serial blood samples were collected from the femoral artery before dosing and at 5, 10, 15, 30, 45 min, 1, 2, 4, 6, 8 and 24 hr after dosing.
In the PO study, the dogs were fasted overnight before dosing. […] The concentration of the dosing solution was 7.0 mg/mL, and the dosing volume was 1 mL/kg. Serial blood samples were collected before dosing and at 15, 30, 45 min, 1, 2, 4, 6, 8 and 24 hr after dosing.
The IV and PO studies of Icb were conducted in a crossover fashion in three male beagle dogs (12±2.8 kg, Marshall Farms USA Inc., North Rose, N.Y.). There was a two-week washout period between the IV and PO studies.
In the IV study, Icb was infused via the cephalic vein at 1.3 mg/kg (free acid, or 1.0 mg/kg of IVe equivalent) over 5 min at a constant rate of 0.1 mL/kg/min. The concentration of the dosing solution was 2.6 mg/mL, and the dosing volume was 0.5 mL/kg. Serial blood samples were collected from the femoral artery before dosing and at 5, 10, 15, 30, 45 min, 1, 2, 4, 6, 8 and 24 hr after dosing.
In the PO study, the dogs were fasted overnight before dosing. […] The concentration of the dosing solution was 12 mg/mL, and the dosing volume was 0.5 mL/kg. Serial blood samples were collected before dosing and at 15, 30, 45 min, 1, 2, 4, 6, 8 and 24 hr after dosing.

Data set [2] in a line: IV and PO pharmacokinetic studies of prodrug salts (Iab, Ibb, Icb) in the monkey, with historical parent data. Format: in vivo, cynomolgus monkeys. Conditions: cynomolgus monkey. As for the experimental part: The IV and PO studies of Iab were conducted in a crossover fashion in three male cynomolgus monkeys (11±1.2 kg, Charles River Biomedical Research Foundation, Houston, Tex.). There was a two-week washout period between the IV and PO studies.
In the IV study, Iab was infused via the femoral vein at 1.3 mg/kg (free acid, or 1.1 mg/kg of IVa equivalent) over 5 min at a constant rate of 0.1 mL/kg/min. The concentration of the dosing solution was 2.6 mg/mL, and the dosing volume was 0.5 mL/kg. Serial blood samples were collected from the femoral artery before dosing and at 5, 10, 15, 30, 45 min, 1, 2, 4, 6, 8 and 24 hr after dosing.
In the PO study, the monkeys were fasted overnight before dosing. Iab was administered by oral gavage at 7.1 mg/kg (free acid, or 5.6 mg/kg of IVa equivalent). The concentration of the dosing solution was 14.2 mg/mL, and the dosing volume was 0.5 mL/kg. Serial blood samples were collected before dosing and at 15, 30, 45 min, 1, 2, 4, 6, 8 and 24 hr after dosing.
The IV and PO studies of Ibb were conducted in a crossover fashion in three male cynomolgus monkeys (9.9±2.4 kg, Charles River Biomedical Research Foundation, Houston, Tex.). There was a two-week washout period between the IV and PO studies.
The concentration of the dosing solution was 2.7 mg/mL, and the dosing volume was 0.5 mL/kg. Serial blood samples were collected from the femoral artery before dosing and at 5, 10, 15, 30, 45 min, 1, 2, 4, 6, 8 and 24 hr after dosing.
In the PO study, the monkeys were fasted overnight before dosing. […] The concentration of the dosing solution was 5.8 mg/mL, and the dosing volume was 1 mL/kg. Serial blood samples were collected before dosing and at 15, 30, 45 min, 1, 2, 4, 6, 8 and 24 hr after dosing.
The IV and PO studies of Icb were conducted in a crossover fashion in three male cynomolgus monkeys (10±1.6 kg, Charles River Biomedical Research Foundation, Houston, Tex.). There was a two-week washout period between the IV and PO studies.
The concentration of the dosing solution was 2.8 mg/mL, and the dosing volume was 0.5 mL/kg. Serial blood samples were collected from the femoral artery before dosing and at 5, 10, 15, 30, 45 min, 1, 2, 4, 6, 8 and 24 hr after dosing.
In the PO study, the monkeys were fasted overnight before dosing. […] The concentration of the dosing solution was 9.8 mg/mL, and the dosing volume was 0.5 mL/kg. Serial blood samples were collected before dosing and at 15, 30, 45 min, 1, 2, 4, 6, 8 and 24 hr after dosing.

Setting [3] is: plasma, iv, 1 mg/kg, read-out: AUCtot.
[4] abbreviates: plasma, iv, 1 mg/kg, read-out: CLtot.
[5] abbreviates: plasma, iv, 1 mg/kg, read-out: MRT.
Setting [6] is: plasma, iv, 1 mg/kg, read-out: T1/2 (converted).
[7] abbreviates: plasma, iv, 1 mg/kg, read-out: Vdss.
The mark [8] stands for this setting: plasma, po, 5 mg/kg, read-out: AUCtot.
The mark [9] stands for this setting: plasma, po, 5 mg/kg, read-out: T1/2 (converted).
Where [10] appears, read: male, beagle, in vivo, iv, 1.28 mg/kg.

As for `O=C(C(=O)N1CCN(C(=O)c2ccccc2)CC1)c1c[nH]c2c(-n3ccnn3)ncc(F)c12` [IVb], the bioavailability in data set [1] (beagle, plasma, historical parent, PO 5 mg/kg, read-out: Bioavailability (%)) came to 179%; in data set [1] (male, beagle, plasma, oral prodrug, read-out: Bioavailability (%) of parent from prodrug) it was 310%; in data set [1] (male, beagle, plasma, oral, 7 mg/kg, read-out: Bioavailability), 310%; in data set [1] (plasma, po, 5 mg/kg, read-out: Bioavailability), 179 ± 56%; in data set [2] (plasma, monkey, historical parent, PO 5 mg/kg, read-out: Bioavailability (%)), 49%; in data set [2] (male, plasma, oral, […], read-out: Bioavailability), 187%. Besides, the bioavailability in data set [2] (male, plasma, monkey, oral prodrug, read-out: Bioavailability (%) of parent from prodrug) amounted to 187%. The Tmax in data set [1] (beagle, plasma, historical parent, PO 5 mg/kg, read-out: Tmax (hr), PO) is 0.5 h; in data set [1] (male, beagle, plasma, parent after oral prodrug (~5 mg/kg parent equivalent), read-out: Tmax (hr), PO), 0.4 h; in data set [1] (male, beagle, plasma, po, 7 mg/kg, read-out: Tmax) it was 0.4 ± 0.13 h; in data set [1] (plasma, po, 5 mg/kg, read-out: Tmax) it was 0.5 ± 0.25 h; in data set [2] (plasma, monkey, historical parent, PO 5 mg/kg, read-out: Tmax (hr), PO), 2.5 h; in data set [2] (male, plasma, po, […], read-out: Tmax) it was 1.5 ± 0.87 h. In data set [2] (male, plasma, monkey, parent after oral prodrug (~4-6 mg/kg parent equivalent), read-out: Tmax (hr), PO), the Tmax turned out to be 1.5 h. The half-life was 2 ± 0.21 h in data set [1] (male, beagle, plasma, iv, […], read-out: T1/2 (converted)); 2.6 ± 0.21 h in data set [1] (male, beagle, plasma, po, 7 mg/kg, read-out: T1/2 (converted)); 1.6 h in data set [1] (setting [6]); 2.7 ± 0.4 h in data set [1] (setting [9]); 19 ± 20 h in data set [2] (setting [6]); 11 h in data set [2] (setting [9]). Besides, the half-life in data set [2] (male, plasma, iv, […], read-out: T1/2 (converted)) is 6.5 ± 2.4 h; in data set [2] (male, plasma, po, […], read-out: T1/2 (converted)), 4.1 ± 1.1 h. The concentration at 24 h in data set [1] (male, beagle, plasma, oral, 7 mg/kg) is 37 ± 26 nM; in data set [1] (plasma, oral, 5 mg/kg) it was 34 nM; in data set [2] (plasma, oral, 5 mg/kg, read-out: C-24 hr) it was 240 nM. The AUC in data set [1] (male, beagle, plasma, po, 7 mg/kg, read-out: AUCtot) worked out at 66 ± 17 µM·h; in data set [1] (setting [3]) it was 3.8 µM·h; in data set [1] (setting [8]), 30 ± 11 µM·h; in data set [2] (setting [3]), 10 ± 1.2 µM·h; in data set [2] (setting [8]), 24 µM·h. Further, the Cmax came out at 20000 ± 2400 nM in data set [1] (male, beagle, plasma, po, 7 mg/kg); 7700 ± 710 nM in data set [1] (plasma, po, 5 mg/kg); 4200 nM in data set [2] (plasma, po, 5 mg/kg, read-out: Cmax). Besides, the clearance stood at 9.8 mL/min/kg in data set [1] (setting [4]) and 3.7 ± 0.43 mL/min/kg in data set [2] (setting [4]). Moreover, the results for the MRT in data set [1] (setting [5]) and in data set [2] (setting [5]) were 1.8 h and 5.6 ± 6.3 h, respectively. The results for the Vd in data set [1] (setting [7]) and in data set [2] (setting [7]) were 1.1 L/kg and 1.2 ± 1.4 L/kg, respectively.

On to `COc1cnc(OC)c2c1c(C(=O)C(=O)N1CCN(C(=O)c3ccccc3)CC1)cn2COP(=O)(O)O` [Iab, {3-[(4-benzoylpiperazin-1-yl)(oxo)acetyl]-4,7-dimethoxy-1H-pyrrolo[2,3-c]pyridin-1-yl}methyl dihydrogen phosphate, L-lysine salt (1:1)], for which the AUC in data set [1] (male, beagle, plasma, after IV prodrug (~1 mg/kg parent equivalent), analyte = label, read-out: AUCtot (μM · hr), IV) is 0.56 ± 0.12 µM·h; in data set [2] (male, plasma, monkey, after IV prodrug (~1.1 mg/kg parent equivalent), analyte = label, read-out: AUCtot (μM · hr), IV), 9.5 ± 0.38 µM·h. Further, the half-life in data set [1] (male, beagle, plasma, after IV prodrug, analyte = label, read-out: t1/2 (hr), IV (converted)) is 0.15 h; in data set [2] (male, plasma, monkey, after IV prodrug, analyte = label, read-out: t1/2 (hr), IV (converted)), 1 h. The clearance in data set [1] (male, beagle, plasma, prodrug after IV administration, read-out: CLtot (mL/min/kg), IV) is 70 mL/min/kg; in data set [2] (male, plasma, monkey, prodrug after IV administration, read-out: CLtot (mL/min/kg), IV) it was 4.4 mL/min/kg. Besides, the Vd in data set [1] (male, beagle, plasma, prodrug after IV administration, read-out: Vdss (L/kg), IV) is 0.3 L/kg; in data set [2] (male, plasma, monkey, prodrug after IV administration, read-out: Vdss (L/kg), IV), 0.048 L/kg. Also, the concentration at 15 min in data set [2] (male, plasma, po, monkey, LLQ = 5 nM, read-out: prodrug detected in plasma after oral administration) is 18 nM.

In the case of `COc1cnc(-n2cnc(C)n2)c2c1c(C(=O)C(=O)N1CCN(C(=O)c3ccccc3)CC1)cn2COP(=O)(O)O` [Icb, [3-[(4-benzoylpiperazin-1-yl)(oxo)acetyl]-4-methoxy-7-(3-methyl-1H-1,2,4-triazol-1-yl)-1H-pyrrolo[2,3-c]pyridin-1-yl]methyl dihydrogen phosphate, 2-amino-2-(hydroxymethyl)propane-1,3-diol salt (1:1)], in data set [1] (setting [10]), the AUC came out at 0.61 ± 0.2 µM·h, the MRT is 0.14 ± 0.021 h, the Vd worked out at 0.5 ± 0.088 L/kg and the clearance came out at 64 ± 18 mL/min/kg. The half-life in data set [1] (setting [10]) is 0.25 ± 0.1 h. The T1/2 in data set [2] (male, in vivo, iv, […]) was 5.34 ± 1.86 min.

As usually defined, the Tmax is the time from dosing to the highest level. A word on the Cmax: it is the maximum level reached in the sampled fluid or tissue. A word on the MRT: it is the average time that molecules of a dose stay in the body.
